# Source: patent publication US9849194B2, “Compositions and methods for imaging and treatment” (New York University, priority 2014, dated 2017)
# Key:
# HeLa cells [1] = assay: In vitro cellular uptake in HeLa cells (fluorescence microscopy); format: cell-based
# HeLa cells [2] = assay: Morphology of HeLa cells after hyperthermia and chemotherapy; format: cell-based; conditions: one-hour hyperthermia, confocal microscopy
# Protocol: Morphology of the cells after hyperthermia and chemotherapy. To assess changes in cell morphology, HeLa cells (˜50000 cells/mL) were cultured in petri-dishes and incubated at 37° C. After 24 hours, DMEM was removed, replaced with the following solutions: DMEM (control), Dox ([Dox]=76 μM) and Dox-CB[7]NPs ([Dox]=76 μM, [Iron]=0.04 M) and incubated for 2 hours. After the treatment, the cells were washed with PBS 3 times and 1 mL of DMEM was added. One petri-dish from each condition was subjected to one hour of magnetic hyperthermia (frequency=464 kHz, current=26.8 kAm^−1) while other petri-dishes were used as control.
# After magnetic hyperthermia treatment, DMEM was removed, the cells were washed with PBS three times and 1 ml of prepared formaldehyde solution (Vformaldehyde=1 mL, Vdistilled water=9 mL) was added to the cells for […] to fix them. After removal of formaldehyde solution the cells were allowed to dry at room temperature for 48 hours in a dark place to prevent photodegradation of Dox. Confocal microscopy used observe changes in the morphology of treated cells compared to control cells.
# HeLa cells [3] = assay: In vitro hyperthermia treatment, HeLa cell viability; format: cell-based; conditions: 2 hours incubation, with or without hyperthermia treatments
# Protocol: Cell viability tests in presence and in absence of AMF were performed in order to evaluate the effect of combined treatments (hyperthermia and chemotherapy) on HeLa cell viability (FIG. 31). Hela cells were incubated for two hours with no additives, Dox, CB[7]NPs or Dox-CB[7]NPs. Selected samples were then subjected to an alternating magnetic field (464 kHz) for one hour. […] The lack of significant cytotoxicity in the cells incubated with Dox or CB[7]NPs is consistent with the limited cellular uptake of the free drug or the lack of toxicity of the nanocarrier respectively.
# In vitro hyperthermia treatment. Viability tests on HeLa cells were performed to investigate the combined effect of both hyperthermia and chemotherapy treatment. Petri-dishes were seeded with HeLa cells (˜50000 cells/mL) and incubated at 37° C. After 24 hours, DMEM was removed, replaced with the following solutions: DMEM (control), Dox ([Dox]=76 μM) and Dox-CB[7]NPs ([Dox]=76 μM, [Iron]=0.04 M) and incubated for 2 hours. […] Two cell viability readings were taken, immediately after hyperthermia treatment and 18 hours after hyperthermia. For cell viability studies 200 μL of CTB per 1 mL of DMEM was added to each petri-dish and incubated for 6 hours after which the medium with CTB was transferred to 96 well plate to take the fluorescence reading.
# HCT116 cells [4] = assay: In vitro cytotoxicity assay, CellTiter-Blue; format: cell-based, human
# Protocol: In vitro cytotoxicity assay. Cell viability was evaluated using the Promega CellTiter-Blue® Cell Viability assay. It uses the indicator dye resazurin to measure the metabolic capacity of cells—an indicator of cell viability. Viable cells retain the ability to reduce resazurin into resorufin, which is highly fluorescent. […] HCT116 cells were seeded at a density of 5×10^4 cells per well in 96-well flat-bottom plates and incubated in 10% FBS-medium for 24 hours. […] After 24 hours incubation, cells were washed with phosphate buffered saline (PBS, Amresco Biotechnolgy grade) and incubated with 20 μL of CellTiter-Blue® Reagent for additional 6 hours at 37° C. The fluorescence corresponding to the resorufin (which reflects the relative viable cell number) was measured at 590 nm using a Synergy H1 Hybrid Reader Biotek. The measurement was performed on untreated cells as a blank control.
# HCT116 cells [5] = assay: cells; conditions: Homo sapiens, HCT-116, 48 h
# Protocol: In order to determine the effectiveness of our nanoparticle system, we conducted a cancer cell viability study on our nanoparticle-drug system and compared it to effectiveness of the free drug (without the NP system). The Promega CellTiter-Blue® Cell Viability Assay was used. The drug, in one condition, and the Drug-NP complex, in another, were incubated with HCT-116 colon cancer cells for 48 hours. Different concentrations of the drug were used (ranging from 0 nM to 500 nM). After the designated incubation time, the IC50—the concentration of the drug needed to inhibit 50% of the cancer cells incubated—was then measured for both conditions.
compound,measurement,setting,value
"COc1cccc2c1C(=O)c1c(O)c3c(c(O)c1C2=O)C[C@@](O)(C(=O)CO)C[C@@H]3O[C@H]1C[C@H](N)[C@H](O)[C@H](C)O1 [Dox, Doxorubicin]",fluorescence of treated cells,"HeLa cells [1]; 2 hours, [DOX]=10 μM",weakly fluorescent
same,normalized fluorescence intensity relative to red emission of Dox-CB[7]NPs,"HeLa cells [1]; 3 hours at 37° C., same dose of Dox, excitation at 488 nm",40%
same,cell morphology after hyperthermia session,HeLa cells [2],normal morphology
same,reduction in viability,HeLa cells [3],Minimal reductions in viability
cucurbit[7]uril [CB[7]],cytotoxic effects,"HCT116 cells [4]; 24 hours of incubation, concentrations as high as 100 μM",Neither CB[7] nor CB[7]NPs displayed cytotoxic effects
same,cytotoxic effects,"HCT116 cells [4]; CB[7] concentrations of 1 to 100 μM, 24 hour incubation",neither CB[7] nor CB[7]NPs elicit cytotoxic effects
CC(=O)O[C@H]1C(=O)[C@@]2(C)[C@H]([C@H](OC(=O)c3ccccc3)[C@]3(O)C[C@H](OC(=O)[C@H](O)[C@@H](NC(=O)c4ccccc4)c4ccccc4)C(C)=C1C3(C)C)[C@]1(OC(C)=O)CO[C@@H]1C[C@@H]2O [Paclitaxel],IC50,HCT116 cells [5],0.071 µM
